{"source": "patent US20260224547A1", "about": "“COMPOSITIONS COMPRISING ANATABINE AND USES THEREOF” (Philip Morris Products S.A., priority 2021, published 2026)", "key": {"[1]": {"tested_on": "PMA-differentiated THP-1 cell lysates", "experiment": "DIA mass spectrometry proteomics of cell lysates", "assay_type": "cell-based, human", "conditions": "100, 200, 300, 400 μM for 24 hours; adjusted p-value<0.05", "method": "To confirm the increased expression of target genes of NRF2 transcription factor at the protein level, proteins were profiled by untargeted mass spectrometry in PMA-differentiated THP-1 cell lysates after anatabine treatment (100, 200, 300, 400 μM) for 24 hours.\nSamples were processed using PREOMICS IST KIT (PreOmics GmbH, Planegg/Martinsried, Germany) as described in the manufacturer's protocol. Briefly, 100 μl of PREOMICS LYSE BUFFER were added to the cells, samples were incubated at 90° C. for 10 min and sonified for 30 sec with a sonifier (Brandson, Danbury, Connecticut, USA) at 10% amplitude. Protein amount was determined using the PIERCE 660 NM PROTEIN ASSAY (Pierce Biotechnology, Rockford, USA) following the manufacturer's protocol. Samples were normalized to 0.5 μg/μl and 40 μg was further processed with PREOMICS IST KIT with a 3 h trypsin digestion. Peptides were purified on the cartridge, dried overnight on a vacuum concentrator (Martin Christ, Germany) and re-suspended in 50 μL of LC SOLUTION (Biognosys AG, Switzerland). 1 μL of iRT reference peptides (Biognosys AG, Switzerland) was added to 19 μL of processed sample. Samples were analysed with an EASY 1000 NANOLC (ThermoFisher Scientific) connected online to a Q-Exactive (ThermoFisher Scientific). […]"}, "NRF2 reporter cells": {"tested_on": "NRF2 reporter cells", "experiment": "Cell viability measured with ATP assay alongside NRF2 translocation (FIG. 4 to 7)", "source_text": "FIGS. 5A to 5C: bar and line graphs showing NRF2 translocation presented as log 2 fold change compared to vehicle control (bars) and cell viability measured with ATP assay and presented as a percentage of the vehicle control (line) for anatabine (FIG. 5A), dimethyl fumarate (AlfaAesar) (FIG. 5B), and nornicotine (FIG. 5C).\nFIGS. 6A to 6C: bar graphs showing NRF2 translocation presented as log 2 fold change compared to vehicle control (bars) and cell viability measured with ATP assay and presented as a percentage of the vehicle control (line) for anatabine (FIG. 6A), dimethyl fumarate (Sigma) (FIG. 6B), and sulforaphane (FIG. 6C).\nFIGS. 7A and […]: bar graphs showing NRF2 translocation presented as log 2 fold change compared to vehicle control (bars) and cell viability measured with ATP assay and presented as a percentage of the vehicle control (line) for cotinine (FIG. 7A) and nicotine (FIG. 7B)."}, "[2]": {"tested_on": "HEK-293, SH-SY5Y, primary human keratinocytes, THP-1 differentiated with PMA", "experiment": "Cell viability, CellTiterGlo (ATP content), used to select concentrations", "assay_type": "cell-based", "conditions": "24 hours of exposure; no more than 400 μM anatabine free base"}, "NRF2": {"tested_on": "NRF2", "experiment": "NRF2 luciferase assay (NRF2/ARE reporter cell line)", "assay_type": "cell-based, human", "source_text": "A HEK-293 NRF2/ARE luciferase reporter cell line was acquired from Signosis (USA). According to Signosis, this NRF2 luciferase reporter stable cell line had been stably transfected with pTA-ARE-luciferase reporter vector, which contains 4 repeats of antioxidant response binding sites, a minimal promoter upstream of the firefly luciferase coding region, along with a hygromycin expression vector. Following selection, the hygromycin resistant clones were subsequently screened for TBHQ-induced luciferase activity. The clone with the highest fold induction was selected and expanded to produce this stable cell line.\n4, 8 or 24 hours after stimulation of the NRF2 reporter cells luminescence was measured using a FLUOstar Omega plate reader."}}, "data": [{"smiles": "C1=CCC(c2cccnc2)NC1", "note": "(racemic) [anatabine, 1,2,3,6-Tetrahydro-2,3′-bipyridine]", "values": [{"measurement": "intracellular protein products of NRF2 target genes HMOX1, GCLM, NQO1 and TXNRD1", "setting": "[1]", "result": "significantly expressed"}, {"measurement": "cell viability, percentage of the vehicle control", "setting": "NRF2 reporter cells; 250 μM", "result": "above 85%"}, {"measurement": "cell viability, percentage of the vehicle control", "setting": "NRF2 reporter cells; 500 μM", "result": "above 85%"}, {"measurement": "cell viability at higher concentrations", "setting": "NRF2 reporter cells; higher concentrations of the tested range", "result": "high cell viability"}, {"measurement": "cell viability (ATP content vs medium-only control)", "setting": "[2]", "result": "≥ 80", "unit": "%"}, {"measurement": "maximum log 2-fold change of NRF2 activation", "setting": "NRF2; at 12.5 μM for sulforaphane, 125 μM and 250 μM for DMF, 1000 μM for anatabine", "result": "over 7"}, {"measurement": "NRF2 luciferase reporter signal", "setting": "NRF2; concentration series", "result": "concentration-dependent rise"}]}]}
